Assay results reported in paper PMC12086609, “Characterization of the Structure and Function of the Photosynthetic RC–LH1 Core Supercomplex From Rhodospirillum rubrum” (Physiologia Plantarum, 2025).

Legend:
[1] = target: T1, Rsp. rubrum RC–LH1 supercomplex (RC–LH1 monomer) (Rhodospirillum rubrum, UniProt P02947+P10717+Q2RQ23+Q2RQ26); assay: cytochrome c2 oxidation at […] nm under […] nm light; type: biochemical; conditions: QB site of RC (L/M); 0-40 μM UQ2, 15 nM RC–LH1, 30 μM reduced horse-heart cytochrome c, HEPES pH 8.0, 0.01% β-DDM; apparent Km not determined
T1 construct: gene pufL; native purification from phototrophic cells (beta-DDM, sucrose gradient); closed ring of 16 alpha-beta pairs around RC L, M, H; modelled alpha 45 and beta 44 residues

[2] = target: T2, Rba. sphaeroides WT RC–LH1 monomer (Cereibacter sphaeroides, UniProt P0C0Y8+P0C0Y9); assay: cytochrome c2 oxidation at […] nm under […] nm light; type: biochemical; conditions: QB site of RC (L/M); 0-40 μM UQ2, 15 nM RC–LH1, 30 μM reduced horse-heart cytochrome c, HEPES pH 8.0, 0.01% β-DDM; apparent Km not determined
T2 construct: gene pufL; native RC–LH1 monomer with open LH1 ring (contains PufX); with Reaction center protein H chain; Light-harvesting protein B-875 alpha chain (LH1 alpha); Light-harvesting protein B-875 beta chain (LH1 beta); Intrinsic membrane protein PufX

[3] = target: T1, Rsp. rubrum RC–LH1 supercomplex (RC–LH1 monomer); assay: cryo-EM structure, […] Å; type: binding; conditions: native carotenoid of LH1, one per alpha-beta heterodimer (16)

T1 sequence (P10717 2-276): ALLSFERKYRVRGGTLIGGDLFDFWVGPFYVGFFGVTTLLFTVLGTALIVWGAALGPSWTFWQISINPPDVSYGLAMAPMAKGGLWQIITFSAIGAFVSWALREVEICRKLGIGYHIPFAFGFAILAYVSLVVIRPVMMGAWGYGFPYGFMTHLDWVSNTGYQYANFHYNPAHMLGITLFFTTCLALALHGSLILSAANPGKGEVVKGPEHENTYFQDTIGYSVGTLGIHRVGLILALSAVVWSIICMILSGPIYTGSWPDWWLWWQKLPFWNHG
T1 sequence (Q2RQ26 1-306): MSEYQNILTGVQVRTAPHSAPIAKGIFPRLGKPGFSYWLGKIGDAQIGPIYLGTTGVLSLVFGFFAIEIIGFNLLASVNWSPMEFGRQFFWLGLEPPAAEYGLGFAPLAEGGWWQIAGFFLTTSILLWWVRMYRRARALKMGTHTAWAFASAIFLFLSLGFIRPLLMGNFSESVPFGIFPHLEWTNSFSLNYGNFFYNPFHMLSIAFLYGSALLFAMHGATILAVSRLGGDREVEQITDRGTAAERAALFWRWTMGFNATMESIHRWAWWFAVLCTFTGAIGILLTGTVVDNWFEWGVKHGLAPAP
T1 sequence (Q2RWS4 1-257 partner): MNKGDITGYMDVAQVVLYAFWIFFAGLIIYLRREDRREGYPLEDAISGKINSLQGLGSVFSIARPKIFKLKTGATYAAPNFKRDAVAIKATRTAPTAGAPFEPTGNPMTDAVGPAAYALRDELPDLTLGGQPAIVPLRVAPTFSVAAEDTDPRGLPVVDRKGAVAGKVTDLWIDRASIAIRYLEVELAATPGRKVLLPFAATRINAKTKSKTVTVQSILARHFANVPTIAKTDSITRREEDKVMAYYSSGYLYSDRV
T1 sequence (P02947 1-52): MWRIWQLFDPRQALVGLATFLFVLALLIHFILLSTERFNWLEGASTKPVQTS
T1 sequence (Q2RQ23 3-56): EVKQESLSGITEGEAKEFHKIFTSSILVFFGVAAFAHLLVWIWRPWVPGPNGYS

| SMILES | cytochrome c oxidation at 550 nm under 880 nm light [1] | cytochrome c2 oxidation at 550 nm under 880 nm light [2] | cryo-EM structure, 3.0 Å [3] |
| --- | --- | --- | --- |
| COC1=C(OC)C(=O)C(C/C=C(\C)CCC=C(C)C)=C(C)C1=O [ubiquinone‐2] | maximum quinone/quinol exchange rate for Rsp. rubrum RC–LH1 monomer | open RC–LH1 monomer of Rba. sphaeroides WT | – |
| COC(C)(C)C/C=C/C(C)=C/C=C/C(C)=C/C=C/C(C)=C/C=C/C=C(C)/C=C/C=C(C)/C=C/C=C(C)/C=C/CC(C)(C)OC [spirilloxanthin] | – | – | The LH1 α‐polypeptide is light blue sky, the β‐polypeptide is pink, spirilloxanthin is green |
